Assay [1] addresses T1, ALDH1A3 (Homo sapiens, UniProt P47895).
T1 sequence (P47895 2-512): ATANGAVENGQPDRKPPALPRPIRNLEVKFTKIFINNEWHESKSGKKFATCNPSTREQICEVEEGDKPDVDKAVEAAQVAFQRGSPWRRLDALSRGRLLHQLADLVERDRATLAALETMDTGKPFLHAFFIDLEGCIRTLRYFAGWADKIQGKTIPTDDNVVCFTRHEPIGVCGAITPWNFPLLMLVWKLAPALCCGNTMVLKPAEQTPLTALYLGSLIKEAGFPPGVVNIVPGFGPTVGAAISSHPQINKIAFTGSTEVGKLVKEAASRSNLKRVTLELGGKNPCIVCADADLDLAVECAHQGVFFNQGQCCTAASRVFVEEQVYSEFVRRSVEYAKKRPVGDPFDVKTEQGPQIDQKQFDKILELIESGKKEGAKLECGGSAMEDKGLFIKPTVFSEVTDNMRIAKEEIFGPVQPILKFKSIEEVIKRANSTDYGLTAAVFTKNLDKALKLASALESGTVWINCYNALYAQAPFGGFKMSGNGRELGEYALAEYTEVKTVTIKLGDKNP
The assay is described as follows: dehydrogenase activity with hexanal, […] ADP (remaining activity). It is filed as biochemical. Also noted: His6-tagged, pET-30 Xa/LIC. The following applies: read-out: % remaining activity at 0.5 mM.

Assay [2] has as its target T2, ALDH1A1 (Homo sapiens, UniProt P00352).
T2 construct: His6-tagged, pET-30 Xa/LIC
T2 sequence (P00352 2-501): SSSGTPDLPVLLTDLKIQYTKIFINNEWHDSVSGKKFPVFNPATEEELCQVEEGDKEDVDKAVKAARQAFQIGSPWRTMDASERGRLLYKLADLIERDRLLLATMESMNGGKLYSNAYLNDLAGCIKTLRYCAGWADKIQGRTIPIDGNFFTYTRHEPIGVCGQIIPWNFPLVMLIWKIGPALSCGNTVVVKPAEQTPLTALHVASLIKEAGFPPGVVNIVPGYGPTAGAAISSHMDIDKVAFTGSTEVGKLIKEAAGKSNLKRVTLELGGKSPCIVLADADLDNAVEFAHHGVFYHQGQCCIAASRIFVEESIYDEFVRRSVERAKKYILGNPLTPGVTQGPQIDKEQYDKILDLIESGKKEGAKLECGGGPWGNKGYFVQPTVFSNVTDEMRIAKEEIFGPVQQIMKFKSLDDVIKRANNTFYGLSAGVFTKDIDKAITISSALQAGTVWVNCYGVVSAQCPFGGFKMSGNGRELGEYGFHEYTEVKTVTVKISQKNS
The assay is described as follows: fluorimetric dehydrogenase assay with hexanal, […] ATP. It is filed as biochemical. Conditions: read-out: % remaining activity at 2 mM.

The target of assay [3] is T1, ALDH1A3. The assay is described as follows: biochemical.
Assay [4] has as its target T3, ALDH3A1 (Homo sapiens, UniProt P30838).
T3 construct: His6-tagged, pET-30 Xa/LIC
T3 sequence (P30838 2-453): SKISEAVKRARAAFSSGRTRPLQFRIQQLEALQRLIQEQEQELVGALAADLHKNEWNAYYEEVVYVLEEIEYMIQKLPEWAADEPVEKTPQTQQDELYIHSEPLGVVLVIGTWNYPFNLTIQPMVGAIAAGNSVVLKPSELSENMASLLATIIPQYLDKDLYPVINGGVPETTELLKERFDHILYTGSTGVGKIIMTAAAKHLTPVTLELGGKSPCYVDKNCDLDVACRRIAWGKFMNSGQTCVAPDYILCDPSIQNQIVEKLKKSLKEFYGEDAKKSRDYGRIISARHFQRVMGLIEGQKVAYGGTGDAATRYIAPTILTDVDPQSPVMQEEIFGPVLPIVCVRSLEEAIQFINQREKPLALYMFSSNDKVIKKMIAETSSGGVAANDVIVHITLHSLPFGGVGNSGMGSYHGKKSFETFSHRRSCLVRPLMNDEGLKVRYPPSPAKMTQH
The assay is described as follows: fluorimetric dehydrogenase assay with hexanal, […] ATP. It is filed as biochemical. Conditions: read-out: % remaining activity at 2 mM.

The target of assay [5] is T4, ALDH1A2 (Homo sapiens, UniProt O94788).
T4 construct: His6-tagged, pET-30 Xa/LIC
T4 sequence (O94788 1-518): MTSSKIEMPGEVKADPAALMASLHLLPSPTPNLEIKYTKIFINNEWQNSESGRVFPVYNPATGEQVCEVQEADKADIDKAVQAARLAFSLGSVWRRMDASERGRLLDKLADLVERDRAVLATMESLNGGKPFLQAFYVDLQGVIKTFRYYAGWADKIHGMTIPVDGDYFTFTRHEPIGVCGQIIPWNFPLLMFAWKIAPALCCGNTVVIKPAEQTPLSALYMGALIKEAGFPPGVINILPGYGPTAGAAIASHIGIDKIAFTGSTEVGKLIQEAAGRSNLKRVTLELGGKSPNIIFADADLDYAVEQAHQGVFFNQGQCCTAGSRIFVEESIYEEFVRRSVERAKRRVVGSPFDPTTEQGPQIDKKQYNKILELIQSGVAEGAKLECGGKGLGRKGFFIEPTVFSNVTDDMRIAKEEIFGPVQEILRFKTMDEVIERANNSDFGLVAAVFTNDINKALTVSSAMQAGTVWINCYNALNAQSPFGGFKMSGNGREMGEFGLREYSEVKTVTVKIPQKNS
The description is as above. It is filed as biochemical. Conditions: read-out: % remaining activity at 2 mM.

Assay [6] addresses T1, ALDH1A3. In words: X-ray crystal structure ([…] Å); Km from enzyme kinetics without Mg2+. It is filed as biochemical. Also noted: His6-tagged, pET-30 Xa/LIC.

Each structure is given as a SMILES string.

For `Nc1ncnc2c1ncn2[C@@H]1O[C@H](COP(=O)(O)OP(=O)(O)O)[C@@H](O)[C@H]1O` [ADP], the remaining activity at 500 µM in assay [1] was 56 ± 4%.
On to `Nc1ncnc2c1ncn2[C@@H]1O[C@H](CO[P@@](=O)(O)O[P@](=O)(O)OP(=O)(O)O)[C@@H](O)[C@H]1O` [ATP], for which the remaining activity at 2000 µM in assay [2] came out at 43 ± 1%; in assay [4], 25 ± 1%; in assay [5], 68 ± 2%. The affinity in assay [3] corresponds to a Ki of 480 ± 80 µM.
As for `NC(=O)c1ccc[n+]([C@@H]2O[C@H](COP(=O)([O-])OP(=O)(O)OC[C@H]3O[C@@H](n4cnc5c(N)ncnc54)[C@H](O)[C@@H]3O)[C@@H](O)[C@H]2O)c1` [NAD^+], the Km in assay [6] came out at 24 ± 2 µM.

Source of the values: PMC9007972, “Structural and biochemical evidence that ATP inhibits the cancer biomarker human aldehyde dehydrogenase 1A3” (Communications Biology, 2022).
